Test results as given in PubChem BioAssay AID1963982 (Molecular Pharmacology Branch, DTP, NCI, 2024).
Blank lines part the entries; values can stand above or below the compound they belong to.

Test system: 313798-341-R-J2-PDC spheroids, viability
Experiment: Anticancer human tumor 313798-341-R-J2-PDC patient-derived cervical squamous cell carcinoma cell line growth inhibition [PI3K]
Conditions: spheroids with HUVEC and MSC; for IC50: curve of first compound; for viability, T/C: stronger effect = lower value
Method in brief: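 Tumor cells grown as multi-cell spheroids with HUVEC endothelial cells and MSC fibroblast-like stroma were treated with targeted agents combined with inavolisib, alpelisib, duvelisib or copanlisib. Doses fell in half-log steps from near clinical Cmax, else from 10 microM. Viability was measured.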
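Also: spheroids exposed to compounds for seven days.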
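For viability, T/C in this document: 100% = DMSO vehicle control viability.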

- IC50 (second compound 0.0316 µM): > 10 µM
- IC50 (second compound 0.1 µM): > 10 µM
- IC50 (second compound 0.316 µM): > 10 µM
- IC50 (second compound 1 µM): > 10 µM
- IC50 (second compound 3.16 µM): > 10 µM
- IC50 (second compound 10 µM): < 0.0316 µM
Compound: CNC(=O)c1ccc(N2C(=S)N(c3ccc(C#N)c(C(F)(F)F)c3)C(=O)C2(C)C)cc1F + Cc1nc(NC(=O)N2CCCC2C(N)=O)sc1-c1ccnc(C(C)(C)C(F)(F)F)c1
- viability, T/C (second compound 0.0316 µM, first compound 0.0316 µM): 97.5%
- viability, T/C (second compound 0.0316 µM, first compound 0.1 µM): 104%
- viability, T/C (second compound 0.0316 µM, first compound 0.316 µM): 92.3%
- viability, T/C (second compound 0.0316 µM, first compound 1 µM): 107%
- viability, T/C (second compound 0.0316 µM, first compound 3.16 µM): 119%
- viability, T/C (second compound 0.0316 µM, first compound 10 µM): 88.4%
- viability, T/C (second compound 0.1 µM, first compound 0.0316 µM): 116%
- viability, T/C (second compound 0.1 µM, first compound 0.1 µM): 101%
- viability, T/C (second compound 0.1 µM, first compound 0.316 µM): 99.5%
- viability, T/C (second compound 0.1 µM, first compound 1 µM): 105%
- viability, T/C (second compound 0.1 µM, first compound 3.16 µM): 111%
- viability, T/C (second compound 0.1 µM, first compound 10 µM): 114%
- viability, T/C (second compound 0.316 µM, first compound 0.0316 µM): 104%
- viability, T/C (second compound 0.316 µM, first compound 0.1 µM): 104%
- viability, T/C (second compound 0.316 µM, first compound 0.316 µM): 107%
- viability, T/C (second compound 0.316 µM, first compound 1 µM): 102%
- viability, T/C (second compound 0.316 µM, first compound 3.16 µM): 117%
- viability, T/C (second compound 0.316 µM, first compound 10 µM): 111%
- viability, T/C (second compound 1 µM, first compound 0.0316 µM): 94.3%
- viability, T/C (second compound 1 µM, first compound 0.1 µM): 89.4%
- viability, T/C (second compound 1 µM, first compound 0.316 µM): 96.2%
- viability, T/C (second compound 1 µM, first compound 1 µM): 96%
- viability, T/C (second compound 1 µM, first compound 3.16 µM): 90.3%
- viability, T/C (second compound 1 µM, first compound 10 µM): 90.4%
- viability, T/C (second compound 3.16 µM, first compound 0.0316 µM): 67.4%
- viability, T/C (second compound 3.16 µM, first compound 0.1 µM): 64.7%
- viability, T/C (second compound 3.16 µM, first compound 0.316 µM): 65.9%
- viability, T/C (second compound 3.16 µM, first compound 1 µM): 64.9%
- viability, T/C (second compound 3.16 µM, first compound 3.16 µM): 61.5%
- viability, T/C (second compound 3.16 µM, first compound 10 µM): 54.5%
- viability, T/C (second compound 10 µM, first compound 0.0316 µM): 36%
- viability, T/C (second compound 10 µM, first compound 0.1 µM): 39.3%
- viability, T/C (second compound 10 µM, first compound 0.316 µM): 38.5%
- viability, T/C (second compound 10 µM, first compound 1 µM): 36.8%
- viability, T/C (second compound 10 µM, first compound 3.16 µM): 35.5%
- viability, T/C (second compound 10 µM, first compound 10 µM): 33%

- IC50 (second compound 0.0316 µM): > 3 µM
- IC50 (second compound 0.1 µM): > 3 µM
- IC50 (second compound 0.316 µM): > 3 µM
- IC50 (second compound 1 µM): 2.79 µM
- IC50 (second compound 3.16 µM): 0.1 µM
- IC50 (second compound 10 µM): < 0.00949 µM
Compound: Cn1cnc2c(F)c(Nc3ccc(Br)cc3Cl)c(C(=O)NOCCO)cc21 + Cc1nc(NC(=O)N2CCCC2C(N)=O)sc1-c1ccnc(C(C)(C)C(F)(F)F)c1
- viability, T/C (second compound 0.0316 µM, first compound 0.00949 µM): 98.8%
- viability, T/C (second compound 0.0316 µM, first compound 0.03 µM): 95.7%
- viability, T/C (second compound 0.0316 µM, first compound 0.0949 µM): 95.7%
- viability, T/C (second compound 0.0316 µM, first compound 0.3 µM): 98.7%
- viability, T/C (second compound 0.0316 µM, first compound 0.949 µM): 98.6%
- viability, T/C (second compound 0.0316 µM, first compound 3 µM): 81.5%
- viability, T/C (second compound 0.1 µM, first compound 0.00949 µM): 105%
- viability, T/C (second compound 0.1 µM, first compound 0.03 µM): 102%
- viability, T/C (second compound 0.1 µM, first compound 0.0949 µM): 98%
- viability, T/C (second compound 0.1 µM, first compound 0.3 µM): 107%
- viability, T/C (second compound 0.1 µM, first compound 0.949 µM): 99.4%
- viability, T/C (second compound 0.1 µM, first compound 3 µM): 83.7%
- viability, T/C (second compound 0.316 µM, first compound 0.00949 µM): 109%
- viability, T/C (second compound 0.316 µM, first compound 0.03 µM): 99.7%
- viability, T/C (second compound 0.316 µM, first compound 0.0949 µM): 98.6%
- viability, T/C (second compound 0.316 µM, first compound 0.3 µM): 100%
- viability, T/C (second compound 0.316 µM, first compound 0.949 µM): 92.6%
- viability, T/C (second compound 0.316 µM, first compound 3 µM): 70.9%
- viability, T/C (second compound 1 µM, first compound 0.00949 µM): 84%
- viability, T/C (second compound 1 µM, first compound 0.03 µM): 79.1%
- viability, T/C (second compound 1 µM, first compound 0.0949 µM): 71.4%
- viability, T/C (second compound 1 µM, first compound 0.3 µM): 76.5%
- viability, T/C (second compound 1 µM, first compound 0.949 µM): 68.7%
- viability, T/C (second compound 1 µM, first compound 3 µM): 48.4%
- viability, T/C (second compound 3.16 µM, first compound 0.00949 µM): 55.3%
- viability, T/C (second compound 3.16 µM, first compound 0.03 µM): 50.3%
- viability, T/C (second compound 3.16 µM, first compound 0.0949 µM): 50.7%
- viability, T/C (second compound 3.16 µM, first compound 0.3 µM): 47.5%
- viability, T/C (second compound 3.16 µM, first compound 0.949 µM): 39.9%
- viability, T/C (second compound 3.16 µM, first compound 3 µM): 32.8%
- viability, T/C (second compound 10 µM, first compound 0.00949 µM): 32.2%
- viability, T/C (second compound 10 µM, first compound 0.03 µM): 25.8%
- viability, T/C (second compound 10 µM, first compound 0.0949 µM): 23%
- viability, T/C (second compound 10 µM, first compound 0.3 µM): 24.3%
- viability, T/C (second compound 10 µM, first compound 0.949 µM): 17.1%
- viability, T/C (second compound 10 µM, first compound 3 µM): 10.4%
